Here are results for 15 compounds from ChEMBL document CHEMBL1201862, “PubChem BioAssay data set” (2004).

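Cultured in 96-well plates, cells were exposed to test compound for 48 hours across five concentrations. GI50 marks 50% less growth.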 Active and inactive are the calls of the source. No stated cut-off is given here; in the data, active = GI50 up to about 1.1 µM and inactive = higher. Some results are limits rather than exact numbers.

Test systems include A498; BT-549; DU-145; MCF7; MDA-MB-231; MDA-MB-435; NCI/ADR-RES; PC-3; SF-295; SF-539; SK-MEL-2; SNB-19; SR; T47D; DLD-1; DMS-273; K562; KM-20L2; SNB-75; LXFL 529.
What all share (test): DTP human tumour cell line panel, 48 h

Consider `COC1=C2CC(C)CC(OC)C(OC(=O)CN)[C@H](C)/C=C(\C)C(OC(N)=O)C(OC)/C=C\C=C(/C)C(=O)NC(=CC1=O)C2=O` (some centres undefined), for which the GI50 (commonly the concentration giving 50% growth inhibition) in the test on A498 is 12.1 µM (inactive); in the test with BT-549, 1.09 µM (active); in the test on DU-145, 1.45 µM (inactive); in the test with MCF7, 0.339 µM (active); with MDA-MB-231, 0.42 µM (active); in the test with MDA-MB-435, 0.373 µM (active). The GI50 in the test on NCI/ADR-RES was 9.62 µM (inactive); with PC-3 it was 1.1 µM (active); with SF-295, 3.84 µM (inactive); in the test with SF-539, 1.24 µM (inactive); in the test with SK-MEL-2, 3.84 µM (inactive); in the test on SNB-19, 6.55 µM (inactive). For the same compound, the GI50 was 0.321 µM (active) with SR and 0.281 µM (active) in the test with T47D.

Consider `CSc1nc2c(ncn2C2OCC(O)C(O)C2O)c(=O)[nH]1` (centres undefined), for which the GI50 with A498, in the test with DLD-1, in the test on DMS-273, in the test on K562, in the test with KM-20L2 and with MCF7 was > 100 µM (inactive) each time. Further, the GI50 in the test on NCI/ADR-RES, in the test on SF-295, in the test on SF-539, in the test with SK-MEL-2, in the test with SNB-19 and with SNB-75 was > 100 µM (inactive) in each case.

In the case of `CN(C(=O)c1ccccc1)c1ccc2c(c1)C(=O)c1ccccc1C2=O`, the GI50 in the test with DMS-273, with K562, in the test with KM-20L2, in the test with LXFL 529, with SF-295 and in the test with SK-MEL-2 was > 100 µM (inactive) throughout. For the same compound, the GI50 in the test with SR was > 100 µM (inactive).

In the case of `Cc1ccc(NP(=O)(Oc2ccccc2)N(CCCl)CCCl)cc1` (centres undefined), the GI50 was 58.7 µM (inactive) in the test on A498; 23.9 µM (inactive) in the test on DLD-1; > 100 µM (inactive) with DMS-273; > 100 µM (inactive) in the test on K562; 76.7 µM (inactive) in the test on KM-20L2; 99.3 µM (inactive) in the test with LXFL 529. Besides, the GI50 in the test with SF-295 was 67 µM (inactive); with SF-539 it was > 100 µM (inactive); with SK-MEL-2, 41.6 µM (inactive); with SNB-75 it was > 100 µM (inactive); in the test on SR, 95.5 µM (inactive).

`O=C(O)/C=C/c1nc2ccccc2c(=O)o1`: the GI50 with DLD-1, in the test on DMS-273, in the test with K562, in the test with KM-20L2, in the test on LXFL 529 and in the test with SF-295 was > 100 µM (inactive) in each case. Besides, the GI50 with SF-539, in the test on SK-MEL-2, with SNB-19 and in the test with SNB-75 was > 100 µM (inactive) throughout.

Take `Cc1ccc([N+](=O)[O-])cc1S(=O)(=O)Nc1ccc(C2=NNC(c3ccccc3O)C2)cc1` (centres undefined): the GI50 with A498 is 19.9 µM (inactive); in the test with BT-549, 19.7 µM (inactive); in the test on DU-145 it was 38.7 µM (inactive); in the test with K562 it was 24.5 µM (inactive); in the test on MCF7 it was 23.1 µM (inactive); in the test on MDA-MB-231, 26.7 µM (inactive). Also, the GI50 was 22.1 µM (inactive) in the test with MDA-MB-435; 24.8 µM (inactive) in the test on NCI/ADR-RES; 29.4 µM (inactive) in the test on PC-3; 31.7 µM (inactive) in the test on SF-295; 40.8 µM (inactive) with SF-539; 25.2 µM (inactive) in the test on SK-MEL-2. Further, the GI50 is 33.8 µM (inactive) with SNB-19, 33.2 µM (inactive) with SNB-75, 23.9 µM (inactive) with SR and 17.3 µM (inactive) in the test with T47D.

`COc1cc(C2C(Cl)C(=O)N2NC(=O)c2ccccc2O)ccc1O` (centres undefined): the GI50 in the test with A498 was 45.9 µM (inactive); with DLD-1, > 100 µM (inactive); in the test on DMS-273, > 100 µM (inactive); in the test with K562, > 100 µM (inactive); in the test on LXFL 529, > 100 µM (inactive); with SF-295, > 100 µM (inactive). Moreover, the GI50 in the test with SF-539, with SK-MEL-2 and in the test on SNB-19 was > 100 µM (inactive) in each case.

In the case of `O=c1c2c(nc3[nH]ccn13)CCCC2`, the GI50 in the test with A498, in the test on DU-145, in the test with MCF7, in the test on MDA-MB-231, in the test on MDA-MB-435 and with NCI/ADR-RES was > 10 µM (inactive) in each case. Besides, the GI50 in the test on PC-3, in the test on SF-295, with SF-539, in the test with SK-MEL-2, in the test with SNB-19 and in the test on SNB-75 was > 10 µM (inactive) in each case. Further, the GI50 with SR and in the test with T47D was > 10 µM (inactive) in each case.

`COc1cc(CNc2nc3cc(C(F)(F)F)ccc3nc2-c2ccccc2)cc(OC)c1OC`: the GI50 is 89.7 µM (inactive) with DU-145; 22.5 µM (inactive) in the test on K562; 1.52 µM (inactive) in the test on MCF7; 20.6 µM (inactive) in the test with MDA-MB-231; 28.5 µM (inactive) in the test with MDA-MB-435; 14.8 µM (inactive) in the test with NCI/ADR-RES. The GI50 is 41.8 µM (inactive) in the test with SF-295; 43.1 µM (inactive) with SF-539; > 100 µM (inactive) in the test with SNB-19; 5.79 µM (inactive) in the test with SNB-75; 15.9 µM (inactive) in the test with SR; 1.65 µM (inactive) in the test on T47D.

Take `O=C(CCl)NNC1=Nc2ccc(Cl)cc2SC1`: the GI50 in the test on A498 is 20.6 µM (inactive); with DLD-1 it was 1.85 µM (inactive); with DMS-273, 2.88 µM (inactive); in the test with K562 it was 1.87 µM (inactive); in the test on KM-20L2, 4.3 µM (inactive); with MCF7, 3.01 µM (inactive). Besides, the GI50 is 1.8 µM (inactive) in the test with NCI/ADR-RES; 15.1 µM (inactive) in the test with SF-295; 2.02 µM (inactive) in the test on SF-539; 3.66 µM (inactive) with SK-MEL-2; 13.5 µM (inactive) in the test with SNB-19; 2.16 µM (inactive) in the test with SNB-75.

Regarding `Cc1cc(C)c(S(=O)(=O)N(CCCCCN)OCCCN)c(C)c1`, the GI50 is 17.4 µM (inactive) with BT-549; 16.7 µM (inactive) in the test on DU-145; 17 µM (inactive) with K562; 17.1 µM (inactive) in the test with MCF7; 31.7 µM (inactive) with MDA-MB-231; 18.2 µM (inactive) in the test with MDA-MB-435. Also, the GI50 is 18 µM (inactive) in the test with NCI/ADR-RES; 14.7 µM (inactive) in the test on PC-3; 15.1 µM (inactive) in the test with SF-295; 11.9 µM (inactive) in the test on SF-539; 17.9 µM (inactive) in the test on SK-MEL-2; 20.3 µM (inactive) with SNB-19. For the same compound, the GI50 is 15.3 µM (inactive) in the test on SNB-75, 12.7 µM (inactive) in the test on SR and 20.6 µM (inactive) in the test with T47D.

As to `COc1ccc(N2C(Cl)C(=O)C2c2c[nH]c3ccccc23)cc1` (centres undefined), the GI50 with K562 is 94.8 µM (inactive); in the test on KM-20L2 it was > 100 µM (inactive); with LXFL 529 it was > 100 µM (inactive); in the test on SF-295, > 100 µM (inactive); with SF-539, > 100 µM (inactive); in the test with SK-MEL-2 it was > 100 µM (inactive). Moreover, the figures for the GI50 with SNB-19, in the test with SNB-75 and with SR were 91.8 µM (inactive), > 100 µM (inactive) and > 100 µM (inactive), respectively.

For the compound `COC(Cc1cc(C(O)(c2ccc(C(C)(C)C)cc2)c2cc(CC(OC)(c3cc(C(OC)(c4ccc(C(C)(C)C)cc4)c4ccc(C(C)(C)C)cc4)c(C)cc3C)c3cc(C(OC)(c4ccc(C(C)(C)C)cc4)c4ccc(C(C)(C)C)cc4)c(C)cc3C)c(C)cc2C)c(C)cc1C)(c1cc(C(OC)(c2ccc(C(C)(C)C)cc2)c2ccc(C(C)(C)C)cc2)c(C)cc1C)c1cc(C(OC)(c2ccc(C(C)(C)C)cc2)c2ccc(C(C)(C)C)cc2)c(C)cc1C`, the GI50 in the test on A498, in the test with BT-549, in the test on DU-145, in the test with K562, in the test on MCF7 and in the test with MDA-MB-231 was > 75 µM (inactive) in each case. Moreover, the GI50 in the test on MDA-MB-435, with NCI/ADR-RES, with PC-3, in the test with SF-295, in the test with SF-539 and with SK-MEL-2 was > 75 µM (inactive) in each case. In addition, the GI50 in the test with SNB-19, in the test on SNB-75, in the test on SR and with T47D was > 75 µM (inactive) each time.

For `CC1(C(=O)O)CCC(C(=O)O)C(C)(C)O1` (centres undefined), the GI50 in the test with BT-549, in the test on DU-145, in the test with K562, in the test on MCF7, with MDA-MB-435 and in the test with NCI/ADR-RES was > 100 µM (inactive) each time. The GI50 with PC-3, in the test on SF-295, in the test with SF-539, in the test with SK-MEL-2, in the test on SNB-19 and in the test with SNB-75 was > 100 µM (inactive) in each case. Besides, in the test on T47D, the GI50 is > 100 µM (inactive).

Turning to `CC(=O)c1c(-c2ccco2)c(C#N)c(=S)n(C2OC(CO)C(O)C(O)C2O)c1C` (centres undefined), the GI50 in the test with BT-549 was > 100 µM (inactive); in the test on DU-145, > 100 µM (inactive); in the test on K562, 95.5 µM (inactive); with MCF7 it was 88.5 µM (inactive); with MDA-MB-231 it was > 100 µM (inactive); with MDA-MB-435 it was 36.4 µM (inactive). The GI50 in the test on NCI/ADR-RES is 75.9 µM (inactive); in the test with PC-3 it was > 100 µM (inactive); with SF-295 it was > 100 µM (inactive); with SF-539, 56 µM (inactive); with SNB-19, 83.6 µM (inactive); in the test on SNB-75, 47.5 µM (inactive). Also, the figures for the GI50 in the test on SR and with T47D were 97.5 µM (inactive) and 35.5 µM (inactive), respectively.
